By MBC is commonly meant the smallest concentration meeting the test's criterion for killing. In general, MIC refers to the smallest concentration in the dilution series that meets the test's criterion for growth inhibition. Broadly, the MFC is the lowest tested concentration that kills the fungus rather than only halting it.

The values below come from patent US20250302740A1, “A CONTROLLED RELEASE, ANTIMICROBIAL GEL FOR THE TREATMENT OF VAGINAL INFECTIONS” (priority 2022, published 2025).

Where two headings read alike, the source gives them in different places.

One test concerns Lactobacillus. The experiment in a line: MIC and MBC against Lactobacillus. In kind it is cell-based. The procedure: (§1) A study was carried out to determine the effectiveness of thymol and carvacrol, singly or in combination, against bacterial vaginosis, trichomoniasis, candidiasis and lactobacilli relative to metronidazole, clotrimazole and clindamycin.
(§2) The results are shown in Table 2, wherein minimum inhibitory concentration (MIC) and minimum bactericidal (or fungicidal) concentration (MBC or MFC) are shown: […]

In the next test the test system is Candida albicans. As to the kind of experiment: MIC and MFC against Candida albicans. In kind it is cell-based. As for the experimental part: as §1, §2
In the next test the test system is Gardnerella vaginalis. The experiment in a line: MIC and MBC against Gardnerella vaginalis. In kind it is cell-based. As for the experimental part:
as §1, §2

Test [1] relates to Gardnerella vaginalis biofilm. Conditions: cited from earlier work.
The test system of test [2] is Gardnerella vaginalis biofilm. Conditions: cited from earlier work; for Mature biofilm inhibition: Gardnerella mature biofilm; for Native biofilm inhibition: Gardnerella native biofilm.
Test [3] deals with Lactobacillus acidophilus. The experiment in a line: Inhibition of Lactobacillus acidophilus across thymol concentration range. In kind it is cell-based. Conditions: steady rate across the concentration range. The text has this: Lactobacillus acidophilus, with a steady rate of <10% inhibition of Lactobacillus acidophilus across the concentration range, compared to inhibition range of 10% to 100% across the same concentration range.

A further test concerns G. vaginalis. The note with it: cited from earlier work.
A further test concerns C. albicans biofilms. Conditions: cited from earlier work.

As to `Cc1ccc(C(C)C)cc1O` [Carvacrol], in the test with Lactobacillus, the MBC came out at 2440 µg/mL and the MIC was 2440 µg/mL. In the test on Candida albicans, the MFC was found to be 1250 µg/mL and the MIC is 625 µg/mL. For the same molecule, in the test on Gardnerella vaginalis, the MBC was 156 µg/mL and the MIC stood at 156 µg/mL.
On to `CCC[C@@H]1C[C@@H](C(=O)N[C@@H]([C@H]2O[C@H](SC)[C@H](O)[C@@H](O)[C@H]2O)[C@H](C)Cl)N(C)C1` [Clindamycin, reference compound], for which the MIC turned out to be 1000 µg/mL in the test on Lactobacillus (read-out: MIC) and 4 µg/mL in the test on Gardnerella vaginalis (read-out: MIC). In addition, the MBC in the test on Gardnerella vaginalis (read-out: MBC) turned out to be 8 µg/mL.
`Clc1ccccc1C(c1ccccc1)(c1ccccc1)n1ccnc1` [Clotrimazole, reference compound]: the MFC in the test with Candida albicans (read-out: MFC) was at least 2000 µg/mL. For the same molecule, in the test on Candida albicans (read-out: MIC), the MIC was found to be 1000 µg/mL.
With `Cc1ncc([N+](=O)[O-])n1CCO` [Metronidazole, reference compound], the MIC is at least 1000 µg/mL with Lactobacillus (read-out: MIC) and 64 µg/mL with Gardnerella vaginalis (read-out: MIC). For the same molecule, the “Prevention of biofilm formation” value in test [1] (Gardnerella vaginalis) is listed as “only able to prevent biofilm formation”. Moreover, the “Inhibition or killing of mature biofilm” value in test [1] (mature biofilm of Gardnerella vaginalis) was “unable to inhibit or kill”.
In the case of `Cc1ccc(C(C)C)c(O)c1` [Thymol], the Mature biofilm inhibition is listed as 13.20% in test [2] (1/4 MIC) and 26.18% in test [2] (1 MIC). The results for the Native biofilm inhibition in test [2] (1/8 MIC) and in test [2] (1 MIC) were 11.39% and 32.77%, respectively. In test [3], the “Inhibition of Lactobacillus acidophilus” value is on record as under 10%. Moreover, the “Adhesion of G. vaginalis to human vaginal cells” value in the test with G. vaginalis was “interfere with the adhesion”. For the same molecule, in the test with Candida albicans (read-out: MFC), the MFC turned out to be 2500 µg/mL. Further, the results for the MIC with Candida albicans (read-out: MIC) and in the test on Gardnerella vaginalis (read-out: MIC) were 125 µg/mL and 175 µg/mL, respectively. For the same molecule, the “Destruction of mature biofilms” value in the test with C. albicans biofilms (C. albicans mature biofilms) is “considerable effect”. Further, the “Reduction in biofilms formed” value with C. albicans biofilms (C. albicans, 0.5xMIC, P<0.05) is “significant reduction”. Moreover, in the test on Gardnerella vaginalis (read-out: MBC), the MBC came out at 250 µg/mL.
